# Laboratory results from patent US20250346574A1, “PYRIDINYL SUBSTITUTED OXOISOINDOLINE COMPOUNDS FOR THE TREATMENT OF CANCER” (Bristol-Myers Squibb Company, priority 2021, published 2025).
# Target: Helios (Homo sapiens, UniProt Q96SW2+Q9UKS7)
# Assay: Helios Human T Regulatory Cells Degradation Assay
# Format: cell-based
# Set-up: fluorescently labelled antibodies against Helios in 1× Permeabilization buffer; endogenous in cells; host or cells: cryopreserved human T regulatory cells
# Settings: cryopreserved human T regulatory cells, incubated 20 hours, Helios-APC antibody staining, flow cytometry; read-out: hTreg Helios DC50
# Description: Cryopreserved human T regulatory cells were thawed in RPMI+10% FBS+20 ng/mL IL-2. After being spun at 1200 rpm for 5 mins, the cells were resuspended in RPMI+10% FBS+20 ng/mL and rested at 37° C. with 5% CO2 for 3 hours. […] Cell cultures were incubated for 20 hours at 37° C. and 5% CO2. In order to facilitate analysis, cell cultures were spun down at 1200 rpm for 5 minutes and the supernatant was discarded using an EL406 plate washer. After washing three times with 70 μL PBS, cell pellets were resuspended in 50 μL of near IR viability staining solution (Life Technologies, Cat #L34975) and incubated for 30 minutes on ice protected from light. Cells were washed three times with 70 μL PBS+0.5% BSA using an EL406 plate washer. […] Subsequently, 30 μL of 1× Permeabilization buffer was added prior to centrifuging the cells and discarding the supernatant. Stained cells were resuspended in 30 μL of flow cytometry staining buffer (PBS+0.5% BSA) and analyzed using an Intellicyt Ique Plus flow cytometer.
# Sequence of Helios (Q9UKS7 whole entry): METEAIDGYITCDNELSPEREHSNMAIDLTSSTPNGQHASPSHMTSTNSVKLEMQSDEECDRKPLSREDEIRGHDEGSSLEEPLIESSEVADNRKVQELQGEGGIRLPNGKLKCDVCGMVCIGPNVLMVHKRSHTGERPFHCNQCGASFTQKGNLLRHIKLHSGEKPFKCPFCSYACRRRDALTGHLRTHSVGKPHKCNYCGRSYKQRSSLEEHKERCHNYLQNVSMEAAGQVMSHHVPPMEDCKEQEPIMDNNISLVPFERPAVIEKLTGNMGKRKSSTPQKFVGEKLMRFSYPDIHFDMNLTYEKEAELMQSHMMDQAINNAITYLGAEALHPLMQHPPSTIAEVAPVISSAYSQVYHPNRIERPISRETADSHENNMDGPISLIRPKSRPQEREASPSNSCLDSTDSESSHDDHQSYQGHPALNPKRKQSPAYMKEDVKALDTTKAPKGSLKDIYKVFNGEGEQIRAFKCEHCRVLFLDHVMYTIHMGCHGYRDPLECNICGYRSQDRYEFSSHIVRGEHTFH
# Sequence of Helios (Q96SW2 whole entry): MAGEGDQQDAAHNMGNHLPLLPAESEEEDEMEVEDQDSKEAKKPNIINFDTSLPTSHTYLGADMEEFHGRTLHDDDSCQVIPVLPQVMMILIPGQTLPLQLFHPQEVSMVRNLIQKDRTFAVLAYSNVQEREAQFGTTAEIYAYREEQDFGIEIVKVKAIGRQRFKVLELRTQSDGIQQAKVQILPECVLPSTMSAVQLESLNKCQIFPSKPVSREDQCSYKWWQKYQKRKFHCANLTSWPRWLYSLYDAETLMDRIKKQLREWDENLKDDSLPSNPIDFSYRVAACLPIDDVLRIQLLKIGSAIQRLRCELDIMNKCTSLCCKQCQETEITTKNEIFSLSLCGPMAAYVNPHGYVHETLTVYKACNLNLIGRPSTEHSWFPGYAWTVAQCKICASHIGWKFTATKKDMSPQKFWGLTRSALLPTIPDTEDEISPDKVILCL
# Sequence of Helios (Q16531 whole entry partner): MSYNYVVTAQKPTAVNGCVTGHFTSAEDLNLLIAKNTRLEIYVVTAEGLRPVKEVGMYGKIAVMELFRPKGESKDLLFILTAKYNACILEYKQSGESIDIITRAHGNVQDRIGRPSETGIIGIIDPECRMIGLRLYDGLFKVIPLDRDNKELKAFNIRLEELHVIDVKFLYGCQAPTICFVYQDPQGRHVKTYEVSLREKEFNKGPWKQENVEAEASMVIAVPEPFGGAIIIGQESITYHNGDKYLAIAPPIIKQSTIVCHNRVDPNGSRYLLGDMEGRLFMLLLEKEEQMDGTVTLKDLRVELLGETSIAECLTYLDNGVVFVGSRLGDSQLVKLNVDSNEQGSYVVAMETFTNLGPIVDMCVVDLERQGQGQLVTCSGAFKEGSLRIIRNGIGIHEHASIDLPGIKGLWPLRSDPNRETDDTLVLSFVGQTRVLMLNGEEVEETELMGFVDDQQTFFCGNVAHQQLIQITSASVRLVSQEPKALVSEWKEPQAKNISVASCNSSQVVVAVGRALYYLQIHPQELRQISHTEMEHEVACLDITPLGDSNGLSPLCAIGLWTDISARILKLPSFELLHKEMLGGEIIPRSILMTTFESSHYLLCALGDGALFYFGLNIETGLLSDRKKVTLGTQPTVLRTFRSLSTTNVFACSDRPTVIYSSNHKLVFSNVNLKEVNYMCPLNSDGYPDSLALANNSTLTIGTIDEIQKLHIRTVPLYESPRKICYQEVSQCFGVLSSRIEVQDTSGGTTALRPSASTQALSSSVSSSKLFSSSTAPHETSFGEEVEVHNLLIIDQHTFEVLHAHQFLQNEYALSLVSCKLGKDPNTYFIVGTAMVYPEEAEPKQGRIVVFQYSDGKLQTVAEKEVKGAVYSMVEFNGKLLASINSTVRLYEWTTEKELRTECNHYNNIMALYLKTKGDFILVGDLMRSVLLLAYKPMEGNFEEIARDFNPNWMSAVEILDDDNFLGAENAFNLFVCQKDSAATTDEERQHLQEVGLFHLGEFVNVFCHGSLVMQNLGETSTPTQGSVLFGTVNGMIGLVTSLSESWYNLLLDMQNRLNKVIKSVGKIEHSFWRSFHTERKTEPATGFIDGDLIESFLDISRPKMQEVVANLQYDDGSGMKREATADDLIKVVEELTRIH
row,DC50 [nM],SMILES
1,51.5,"O=C1CCC(N2Cc3cc(-c4nccc(CN5CCC(O)CC5)c4F)ccc3C2=O)C(=O)N1 (stereo not shown) [Example 226, 3-(5-(3-fluoro-4-((4-hydroxypiperidin-1-yl)methyl)pyridin-2-yl)-1-oxoisoindolin-2-yl)piperidine-2,6-dione]"
2,3.4,"O=C1CCC(N2Cc3cc(-c4nccc(CN5CC6(CCC6)C5)c4F)ccc3C2=O)C(=O)N1 (stereo not shown) [Example 88, 3-(5-(4-((2-azaspiro[3.3]heptan-2-yl)methyl)-3-fluoropyridin-2-yl)-1-oxoisoindolin-2-yl)piperidine-2,6-dione]"
3,≥ 10000,"CC(C)(C)OC(=O)N1C[C@H]2CN(Cc3ccnc(-c4ccc5c(c4)CN([C@H]4CCC(=O)NC4=O)C5=O)c3F)C[C@H]2C1 [Example 156, tert-butyl (3aR,6aS)-5-((2-(2-((S)-2,6-dioxopiperidin-3-yl)-1-oxoisoindolin-5-yl)-3-fluoropyridin-4-yl)methyl)hexahydropyrrolo[3,4-c]pyrrole-2(1H)-carboxylate]"
4,≥ 10000,"O=C1CCC(N2Cc3cc(-c4nccc(CN5CCC(O)(C(F)(F)F)C5)c4F)ccc3C2=O)C(=O)N1 (stereo not shown) [Example 185, 3-(5-(3-fluoro-4-((3-hydroxy-3-(trifluoromethyl)pyrrolidin-1-yl)methyl)pyridin-2-yl)-1-oxoisoindolin-2-yl)piperidine-2,6-dione]"
5,23.5,"O=C1CCC(N2Cc3cc(-c4nccc(CN5CC[C@H](O)C5)c4F)ccc3C2=O)C(=O)N1 (stereo partly drawn) [Example 114, 3-(5-(3-fluoro-4-(((S)-3-hydroxypyrrolidin-1-yl)methyl)pyridin-2-yl)-1-oxoisoindolin-2-yl)piperidine-2,6-dione]"
6,2760,"O=C1CCC(N2Cc3cc(-c4nccc(CN5CCC6(CC5)CC(O)CO6)c4F)ccc3C2=O)C(=O)N1 (stereo not shown) [Example 222, 3-(5-(3-fluoro-4-((3-hydroxy-1-oxa-8-azaspiro[4.5]decan-8-yl)methyl)pyridin-2-yl)-1-oxoisoindolin-2-yl)piperidine-2,6-dione]"
7,1230,"O=C1CCC(N2Cc3cc(-c4nccc(CN5CCn6cnnc6C5)c4F)ccc3C2=O)C(=O)N1 (stereo not shown) [Example 263, 3-(5-(4-((5,6-dihydro-[1,2,4]triazolo[4,3-a]pyrazin-7(8H)-yl)methyl)-3-fluoropyridin-2-yl)-1-oxoisoindolin-2-yl)piperidine-2,6-dione]"
8,18.4,"CC(C)(O)C1CN(Cc2ccnc(-c3ccc4c(c3)CN(C3CCC(=O)NC3=O)C4=O)c2F)C1 (stereo not shown) [Example 89, 3-(5-(3-fluoro-4-((3-(2-hydroxypropan-2-yl)azetidin-1-yl)methyl)pyridin-2-yl)-1-oxoisoindolin-2-yl)piperidine-2,6-dione]"
9,280,"CC(=O)N1CCC2(CN(Cc3ccnc(-c4ccc5c(c4)CN(C4CCC(=O)NC4=O)C5=O)c3F)C2)C1 (stereo not shown) [Example 272, 3-(5-(4-((6-acetyl-2,6-diazaspiro[3.4]octan-2-yl)methyl)-3-fluoropyridin-2-yl)-1-oxoisoindolin-2-yl)piperidine-2,6-dione]"
10,1.5,"COc1cc(CN2CC3(CCC3)C2)cc(-c2ccc3c(c2)CN(C2CCC(=O)NC2=O)C3=O)n1 (stereo not shown) [Example 174, 3-(5-(4-((2-azaspiro[3.3]heptan-2-yl)methyl)-6-methoxypyridin-2-yl)-1-oxoisoindolin-2-yl)piperidine-2,6-dione]"
11,≥ 10000,"O=C1CCC(N2Cc3cc(-c4nccc(CN5CCC6(CC5)OCc5ccccc56)c4F)ccc3C2=O)C(=O)N1 (stereo not shown) [Example 249, 3-(5-(4-((3H-spiro[isobenzofuran-1,4′-piperidin]-1′-yl)methyl)-3-fluoropyridin-2-yl)-1-oxoisoindolin-2-yl)piperidine-2,6-dione]"
12,0.2,"COc1cc(CN2CCC(C3CC3)C2)cc(-c2ccc3c(c2)CN(C2CCC(=O)NC2=O)C3=O)n1 (stereo not shown) [Example 175, 3-(5-(4-((3-cyclopropylpyrrolidin-1-yl)methyl)-6-methoxypyridin-2-yl)-1-oxoisoindolin-2-yl)piperidine-2,6-dione]"
13,8.1,"O=C1CCC(N2Cc3cc(-c4cc(CN5CC[C@@H](CO)C5)ccn4)ccc3C2=O)C(=O)N1 (stereo partly drawn) [Example 102, 3-(5-(4-(((R)-3-(hydroxymethyl)pyrrolidin-1-yl)methyl)pyridin-2-yl)-1-oxoisoindolin-2-yl)piperidine-2,6-dione]"
14,≥ 10000,"CC(=O)N1CC2CCC(C1)N2Cc1ccnc(-c2ccc3c(c2)CN(C2CCC(=O)NC2=O)C3=O)c1F (stereo not shown) [Example 227, 3-(5-(4-((3-acetyl-3,8-diazabicyclo[3.2.1]octan-8-yl)methyl)-3-fluoropyridin-2-yl)-1-oxoisoindolin-2-yl)piperidine-2,6-dione]"
15,9.5,"CC(O)C1CCN(Cc2ccnc(-c3ccc4c(c3)CN(C3CCC(=O)NC3=O)C4=O)c2F)C1 (stereo not shown) [Example 112, 3-(5-(3-fluoro-4-((3-(1-hydroxyethyl)pyrrolidin-1-yl)methyl)pyridin-2-yl)-1-oxoisoindolin-2-yl)piperidine-2,6-dione]"
16,34.2,"CC1(O)CCCN(Cc2ccnc(-c3ccc4c(c3)CN(C3CCC(=O)NC3=O)C4=O)c2F)CC1 (stereo not shown) [Example 220, 3-(5-(3-fluoro-4-((4-hydroxy-4-methylazepan-1-yl)methyl)pyridin-2-yl)-1-oxoisoindolin-2-yl)piperidine-2,6-dione]"
17,23.1,"C[C@@H]1c2c(ccc(-c3cc(CN4CC[C@@H](CO)C4)ccn3)c2F)C(=O)N1[C@H]1CCC(=O)NC1=O [Example 133, (S)-3-((R)-4-fluoro-5-(4-(((R)-3-(hydroxymethyl)pyrrolidin-1-yl)methyl)pyridin-2-yl)-3-methyl-1-oxoisoindolin-2-yl)piperidine-2,6-dione]"
18,4110,"O=C1CCC(N2Cc3cc(-c4cc(CN5Cc6cnc(Cl)cc6C5)ccn4)ccc3C2=O)C(=O)N1 (stereo not shown) [Example 103, 3-(5-(4-((6-chloro-1,3-dihydro-2H-pyrrolo[3,4-c]pyridin-2-yl)methyl)pyridin-2-yl)-1-oxoisoindolin-2-yl)piperidine-2,6-dione]"
19,≥ 10000,"O=C1CCC(N2Cc3cc(-c4nccc(CN5CCc6cccc(Cl)c6C5)c4F)ccc3C2=O)C(=O)N1 (stereo not shown) [Example 268, 3-(5-(4-((8-chloro-3,4-dihydroisoquinolin-2(1H)-yl)methyl)-3-fluoropyridin-2-yl)-1-oxoisoindolin-2-yl)piperidine-2,6-dione]"
20,≥ 10000,"Cc1cnn(Cc2ccnc(-c3ccc4c(c3)CN([C@H]3CCC(=O)NC3=O)C4=O)c2)c1 [Example 166, (S)-3-(5-(4-((4-methyl-1H-pyrazol-1-yl)methyl)pyridin-2-yl)-1-oxoisoindolin-2-yl)piperidine-2,6-dione]"
21,≥ 10000,"O=C1CCC(N2Cc3cc(-c4nccc(CN5CCC(O)(c6ccccc6)CC5)c4F)ccc3C2=O)C(=O)N1 (stereo not shown) [Example 91, 3-(5-(3-fluoro-4-((4-hydroxy-4-phenylpiperidin-1-yl)methyl)pyridin-2-yl)-1-oxoisoindolin-2-yl)piperidine-2,6-dione]"
22,3.2,"O=C1CC[C@H](N2Cc3cc(-c4cc(CN5CC6(CCOCC6)C5)ccn4)ccc3C2=O)C(=O)N1 [Example 158, (S)-3-(5-(4-((7-oxa-2-azaspiro[3.5]nonan-2-yl)methyl)pyridin-2-yl)-1-oxoisoindolin-2-yl)piperidine-2,6-dione]"
23,≥ 10000,"O=C1CCC(N2Cc3cc(-c4nccc(CN5CCCC(F)(c6ccccc6)C5)c4F)ccc3C2=O)C(=O)N1 (stereo not shown) [Example 253, 3-(5-(3-fluoro-4-((3-fluoro-3-phenylpiperidin-1-yl)methyl)pyridin-2-yl)-1-oxoisoindolin-2-yl)piperidine-2,6-dione]"
24,31.9,"O=C1CCC(N2Cc3c(ccc(-c4nccc(CN5CC[C@H](CO)C5)c4F)c3F)C2=O)C(=O)N1 (stereo partly drawn) [Example 277, 3-(4-fluoro-5-(3-fluoro-4-(((S)-3-(hydroxymethyl)pyrrolidin-1-yl)methyl)pyridin-2-yl)-1-oxoisoindolin-2-yl)piperidine-2,6-dione]"
25,1,"Cc1cnc(-c2ccc3c(c2)CN(C2CCC(=O)NC2=O)C3=O)cc1CN1CCC(C(C)(C)O)CC1 (stereo not shown) [Example 167, 3-(5-(4-((4-(2-hydroxypropan-2-yl)piperidin-1-yl)methyl)-5-methylpyridin-2-yl)-1-oxoisoindolin-2-yl)piperidine-2,6-dione]"
26,≥ 10000,"CC(C)(C)OC(=O)N[C@H]1C[C@H](F)CN(Cc2ccnc(-c3ccc4c(c3)CN(C3CCC(=O)NC3=O)C4=O)c2F)C1 (stereo partly drawn) [Example 236, tert-butyl ((3S,5S)-1-((2-(2-(2,6-dioxopiperidin-3-yl)-1-oxoisoindolin-5-yl)-3-fluoropyridin-4-yl)methyl)-5-fluoropiperidin-3-yl)carbamate]"
27,6.7,"O=C1CC[C@H](N2Cc3cc(-c4nccc(CN5C[C@H]6CCC(O)C[C@H]6C5)c4F)ccc3C2=O)C(=O)N1 (stereo partly drawn) [Example 149, (3S)-3-(5-(3-fluoro-4-(((3aR,7aS)-5-hydroxyoctahydro-2H-isoindol-2-yl)methyl)pyridin-2-yl)-1-oxoisoindolin-2-yl)piperidine-2,6-dione]"
28,≥ 10000,"O=C1CCC(N2Cc3cc(-c4cc(CN5CC6(CCC6)C5)c(C(F)(F)F)cn4)ccc3C2=O)C(=O)N1 (stereo not shown) [Example 180, 3-(5-(4-((2-azaspiro[3.3]heptan-2-yl)methyl)-5-(trifluoromethyl)pyridin-2-yl)-1-oxoisoindolin-2-yl)piperidine-2,6-dione]"
